The target in one experiment is T1, Glutaminase(Brain) (Mus musculus, UniProt D3Z7P3).
T1 sequence (D3Z7P3 55-674): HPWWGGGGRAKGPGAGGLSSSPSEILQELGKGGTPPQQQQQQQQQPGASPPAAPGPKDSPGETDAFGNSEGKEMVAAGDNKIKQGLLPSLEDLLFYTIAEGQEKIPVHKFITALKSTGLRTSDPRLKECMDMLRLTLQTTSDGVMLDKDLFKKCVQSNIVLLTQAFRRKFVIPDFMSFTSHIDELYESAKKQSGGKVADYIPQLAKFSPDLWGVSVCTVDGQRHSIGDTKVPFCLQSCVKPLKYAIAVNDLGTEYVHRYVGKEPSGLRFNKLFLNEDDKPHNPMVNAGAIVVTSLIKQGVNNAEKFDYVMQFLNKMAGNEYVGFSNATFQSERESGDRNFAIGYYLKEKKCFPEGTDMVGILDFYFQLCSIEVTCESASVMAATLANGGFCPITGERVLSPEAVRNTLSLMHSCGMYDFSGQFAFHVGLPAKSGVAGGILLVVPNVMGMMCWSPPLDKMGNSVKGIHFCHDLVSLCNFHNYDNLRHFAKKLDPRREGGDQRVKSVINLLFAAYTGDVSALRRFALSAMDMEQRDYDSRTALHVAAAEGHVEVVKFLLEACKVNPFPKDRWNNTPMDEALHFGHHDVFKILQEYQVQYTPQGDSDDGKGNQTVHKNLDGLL
Put plainly: Glutaminase enzyme activity using glutaminase enzyme from mice brain/kidney homogenate (Nessler's reagent, ammonia). The class given is biochemical. As to conditions: for inhibition at 0.1 µM: read-out: Glutaminase(Brain) activity % inhibition 0.1 μM; for inhibition at 1 µM: read-out: Glutaminase(Brain) activity % inhibition @1 μM. As for the experimental part:
Assay 3: Determination of Glutaminase Enzyme Activity Using Glutaminase Enzyme from Mice Brain/Kidney
Step 1: Preparation of Tissue Homogenates:
Male Balb/c mice were administered 0.28 M ammonium chloride in drinking water for 7 days. The animals were sacrificed and brain/kidney organs collected on dry ice. […] The tissue was homogenized and supernatants were stored at −80° C. until the enzyme assay was performed.
Aim: Compounds were assessed for their ability to inhibit the enzymatic activity of L-glutaminase present in mice brain/kidney homogenate.
Protocol: The assay was performed using a colorimetric method using Nessler's Reagent by quantifying the amount of ammonia formed as a by product during the enzymatic conversion of L-glutamine to glutamate. In the routine assay, 16 μl of tissue homogenate is added to 33 μl of Tris-Hcl phosphate buffer (pH 8) along with 1 μl of DMSO/test compound containing the desired final concentration and vortexed briefly. 50 μl of 20 mM L-glutamine Tris buffer is added to start the reaction and incubated for 15 minutes at 37° C. The ammonia formed is detected by adding 20 μl of reaction mixture to cold water in a 96 well plate followed by 20 μl of Nessler's reagent. The colour developed is measured at 450 nm. Data Analysis: Activity of the test compound is reported as % inhibition and the data is analyzed using Graphpad Prism (Graphpad software; San Diego Calif.) for IC50 determination.

The subject of another experiment is MDA-MB-231. Put plainly: In vitro cell proliferation assay (MTT), MDA-MB-231. The class given is cell-based. As to conditions: Homo sapiens, 72 hours. The method, then: Assay 4: In Vitro Cell Proliferation Assay in Cancer Cell Lines
Growth inhibition assays were carried out using 10% FBS supplemented media. Cells were seeded at a concentration of 5000-20,000 cells/well in a 96-well plate. Test compounds at a concentration range from 0.01 to 10000 nM were added after 24 hours. Growth was assessed using the 3-[4,5-dimethylthiazol-2-yl]-2,5-diphenyltetrazolium bromide (MTT) dye reduction test at 0 h (prior to the addition of the test compound) and 72 hours after the addition of test compound. Absorbance was read on a Fluostar Optima (BMG Labtech, Germany) at a wave length of 450 nm. Data were analysed using GraphPad Prism and percent inhibition due to the test compound compared to the control was calculated accordingly.

Read-outs that look alike come from different tables or passages of the source.

The source of these data is patent US10611759B2, “Glutaminase inhibitors” (Rhizen Pharmaceuticals SA, priority 2014, dated 2020).

`CS(=O)(=O)Nc1cccc(CC(=O)Nc2nnc(C3CCN(c4ccc(NC(=O)Cc5cccc(OC(F)(F)F)c5)nn4)CC3)s2)c1` [Example-11, 2-(3-(Methylsulfonamido)phenyl)-N-(5-(1-(6-(2-(3-(trifluoromethoxy)phenyl)acetamido)pyridazin-3-yl)piperidin-4-yl)-1,3,4-thiadiazol-2-yl)acetamide]: on Glutaminase(Brain) (0.1 μM, mice brain homogenate), the inhibition (as a rule, the share of the control response that was lost under treatment) at 0.1 µM was below 25%. Moreover, the inhibition at 1 µM at Glutaminase(Brain) (1 μM, mice brain homogenate) lay within 50 to 75%. Further, the GI50 (commonly the concentration at which growth is held to half of that of the control) with MDA-MB-231 is 250 to 500 nM.
For `O=C(Cc1cccc(OC(F)(F)F)c1)Nc1ccc(N2CCCC(c3nnc(NC(=O)Cc4ccccn4)s3)C2)nn1` (centres unmarked) [Example-9, 2-(Pyridin-2-yl)-N-(5-(1-(6-(2-(3-(trifluoromethoxy)phenyl)acetamido)pyridazin-3-yl)piperidin-3-yl)-1,3,4-thiadiazol-2-yl)acetamide], at Glutaminase(Brain), the inhibition at 0.1 µM was in the range of 50 to 75% and the inhibition at 1 µM fell in the range of 75 to 100%. In addition, the GI50 with MDA-MB-231 fell in the range of 100 to 250 nM.
Turning to `O=C(Cc1cccc(OC(F)(F)F)c1)Nc1ccc(N2CCC(c3nnc(NC(=O)Cc4cccnc4)s3)CC2)nn1` [Example-10, 2-(Pyridin-3-yl)-N-(5-(1-(6-(2-(3-(trifluoromethoxy)phenyl)acetamido)pyridazin-3-yl)piperidin-4-yl)-1,3,4-thiadiazol-2-yl)acetamide], on Glutaminase(Brain) (0.1 μM, mice brain homogenate), the inhibition at 0.1 µM was in the range of 50 to 75%. Further, the inhibition at 1 µM on Glutaminase(Brain) (1 μM, mice brain homogenate) lay in the range of 75 to 100%. The compound further yielded a GI50 in the experiment with MDA-MB-231 of 100 to 250 nM.
Take `O=C(Cc1cccnc1)Nc1ccc(N2CCC(c3nnc(NC(=O)Cc4cccc(OC(F)(F)F)c4)s3)CC2)nn1` [Example-18, 2-(Pyridin-3-yl)-N-(6-(4-(5-(2-(3-(trifluoromethoxy)phenyl)acetamido)-1,3,4-thiadiazol-2-yl)piperidin-1-yl)pyridazin-3-yl)acetamide]: the inhibition at 0.1 µM at Glutaminase(Brain) (0.1 μM, mice brain homogenate) lay in the range of 75 to 100%. In addition, the inhibition at 1 µM on Glutaminase(Brain) (1 μM, mice brain homogenate) lay in the range of 75 to 100%. In addition, in the experiment with MDA-MB-231, the GI50 is below 100 nM.
`O=C(Cc1cccc(OC(F)(F)F)c1)Nc1ccc(N2CCCC(c3nnc(NC(=O)Cc4cccnc4)s3)C2)cn1` (racemic) [Example 3, (RS)-2-(Pyridin-3-yl)-N-(5-(1-(6-(2-(3-(trifluoromethoxy)phenyl)acetamido)pyridin-3-yl)piperidin-3-yl)-1,3,4-thiadiazol-2-yl)acetamide]: the inhibition at 0.1 µM at Glutaminase(Brain) (0.1 μM, mice brain homogenate) lay within 25 to 50%. Moreover, the inhibition at 1 µM at Glutaminase(Brain) (1 μM, mice brain homogenate) lay within 50 to 75%. Also, the GI50 with MDA-MB-231 lay in the range of 1000 to 3000 nM.
The matching figures for `O=C(Cc1cccc(OC(F)(F)F)c1)Nc1ccc(N2CCC(c3nnc(NC(=O)Cc4cccnc4)s3)CC2)cn1` [Example-4, 2-(Pyridin-3-yl)-N-(5-(1-(6-(2-(3-(trifluoromethoxy)phenyl)acetamido)pyridin-3-yl)piperidin-4-yl)-1,3,4-thiadiazol-2-yl)acetamide]: 25 to 50%, 50 to 75% and 250 to 500 nM.
As for `O=C(Cc1ccccn1)Nc1ccc(N2CCC(c3nnc(NC(=O)Cc4cccc(OC(F)(F)F)c4)s3)CC2)nn1` [Example-17, 2-(Pyridin-2-yl)-N-(6-(4-(5-(2-(3-(trifluoromethoxy)phenyl)acetamido)-1,3,4-thiadiazol-2-yl)piperidin-1-yl)pyridazin-3-yl)acetamide], at Glutaminase(Brain), the inhibition at 0.1 µM lay in the range of 75 to 100% and the inhibition at 1 µM is 75 to 100%. In the experiment with MDA-MB-231, the GI50 is below 100 nM.
For `O=C(Cc1ccccn1)Nc1ccc(N2CCC(c3nnc(NC(=O)Cc4cccc(OC(F)(F)F)c4)s3)CC2)cn1` [Example-6, 2-(Pyridin-2-yl)-N-(5-(4-(5-(2-(3-(trifluoromethoxy)phenyl)acetamido)-1,3,4-thiadiazol-2-yl)piperidin-1-yl)pyridin-2-yl)acetamide], on Glutaminase(Brain) (0.1 μM, mice brain homogenate), the inhibition at 0.1 µM is below 25%. In addition, the inhibition at 1 µM on Glutaminase(Brain) (1 μM, mice brain homogenate) was below 25%.
Take `O=C(Cc1ccccn1)Nc1ccc(N2CCC(c3nnc(NC(=O)Cc4cccc(F)c4)s3)CC2)nn1` [Example-24, 2-(3-Fluorophenyl)-N-(5-(1-(6-(2-(pyridin-2-yl)acetamido)pyridazin-3-yl)piperidin-4-yl)-1,3,4-thiadiazol-2-yl)acetamide]: the inhibition at 0.1 µM at Glutaminase(Brain) (0.1 μM, mice brain homogenate) fell in the range of 50 to 75%. Moreover, on Glutaminase(Brain) (1 μM, mice brain homogenate), the inhibition at 1 µM fell in the range of 75 to 100%.
Consider `O=C(Cc1ccccc1Cl)Nc1ccc(N2CCC(c3nnc(NC(=O)Cc4ccccn4)s3)CC2)nn1` [Example-12, 2-(2-Chlorophenyl)-N-(6-(4-(5-(2-(pyridin-2-yl)acetamido)-1,3,4-thiadiazol-2-yl)piperidin-1-yl)pyridazin-3-yl)acetamide], for which, on Glutaminase(Brain) (0.1 μM, mice brain homogenate), the inhibition at 0.1 µM is 50 to 75%. For the same compound, the inhibition at 1 µM at Glutaminase(Brain) (1 μM, mice brain homogenate) was in the range of 75 to 100%. In the experiment on MDA-MB-231, this compound registered a GI50 below 100 nM.
The matching figures for `O=C(Cc1cccc(OC(F)(F)F)c1)Nc1ccc(N2CCC(c3nnc(NC(=O)Cc4cnccn4)s3)CC2)nn1` [Example-15, 2-(Pyrazin-2-yl)-N-(5-(1-(6-(2-(3-(trifluoromethoxy)phenyl)acetamido)pyridazin-3-yl)piperidin-4-yl)-1,3,4-thiadiazol-2-yl)acetamide]: 50 to 75%, 75 to 100% and below 100 nM.
With `O=C(Cc1ccccn1)Nc1ccc(N2CCC(c3nnc(NC(=O)Cc4cc(Cl)ccc4C(F)(F)F)s3)CC2)nn1` [Example-28, 2-(5-Chloro-2-(trifluoromethyl)phenyl)-N-(5-(1-(6-(2-(pyridin-2-yl)acetamido)pyridazin-3-yl)piperidin-4-yl)-1,3,4-thiadiazol-2-yl)acetamide], the inhibition at 0.1 µM at Glutaminase(Brain) (0.1 μM, mice brain homogenate) was in the range of 50 to 75%. Besides, the inhibition at 1 µM at Glutaminase(Brain) (1 μM, mice brain homogenate) was 50 to 75%.
In the case of `O=C(Cc1ccccc1F)Nc1ccc(N2CCC(c3nnc(NC(=O)Cc4ccccn4)s3)CC2)nn1` [Example-14, 2-(2-Fluorophenyl)-N-(6-(4-(5-(2-(pyridin-2-yl)acetamido)-1,3,4-thiadiazol-2-yl)piperidin-1-yl)pyridazin-3-yl)acetamide], the inhibition at 0.1 µM at Glutaminase(Brain) (0.1 μM, mice brain homogenate) is 75 to 100%. In addition, the inhibition at 1 µM on Glutaminase(Brain) (1 μM, mice brain homogenate) lay within 75 to 100%. The compound further registered a GI50 in the experiment on MDA-MB-231 below 100 nM.
As to `Cc1ccccc1CC(=O)Nc1nnc(C2CCN(c3ccc(NC(=O)Cc4cccc(OC(F)(F)F)c4)nn3)CC2)s1` [Example-31, 2-o-Tolyl-N-(5-(1-(6-(2-(3-(trifluoromethoxy)phenyl)acetamido)pyridazin-3-yl)piperidin-4-yl)-1,3,4-thiadiazol-2-yl)acetamide], at Glutaminase(Brain) (0.1 μM, mice brain homogenate), the inhibition at 0.1 µM is 25 to 50%. For the same compound, the inhibition at 1 µM on Glutaminase(Brain) (1 μM, mice brain homogenate) fell in the range of 50 to 75%.
Taken in the same sequence, the figures for `O=C(Cc1cccc(OC(F)(F)F)c1)Nc1ccc(N2CCCC(c3nnc(NC(=O)Cc4cccnc4)s3)C2)cn1` (single isomer, unassigned) [Example 3B, (S) or (R) 2-(Pyridin-3-yl)-N-(5-(1-(6-(2-(3-(trifluoromethoxy)phenyl)acetamido)pyridine-3-yl)piperidin-3-yl)-1,3,4-thiadiazol-2-yl)acetamide] were below 25% and below 25%.
The matching figures for `O=C(Cc1cccc(OC(F)(F)F)c1)Nc1ccc(N2CCCC(c3nnc(NC(=O)Cc4ccccc4Cl)s3)C2)nn1` (centres unmarked) [Example-13, 2-(2-Chlorophenyl)-N-(5-(1-(6-(2-(3-(trifluoromethoxy)phenyl)acetamido)pyridazin-3-yl)piperidin-3-yl)-1,3,4-thiadiazol-2-yl)acetamide]: below 25% and 50 to 75%.
`O=C(Cc1ccccn1)Nc1ccc(N2CCC(c3nnc(NC(=O)Cc4cccc(Cl)c4)s3)CC2)nn1` [Example-35, 2-(3-Chlorophenyl)-N-(5-(1-(6-(2-(pyridin-2-yl)acetamido)pyridazin-3-yl)piperidin-4-yl)-1,3,4-thiadiazol-2-yl)acetamide]: the inhibition at 0.1 µM on Glutaminase(Brain) (0.1 μM, mice brain homogenate) was in the range of 50 to 75%. The inhibition at 1 µM at Glutaminase(Brain) (1 μM, mice brain homogenate) is 75 to 100%.
